Inhibition of neutrophilia data for 15 compounds are collected here from patent publication US20090239846A1, “Novel Compounds” (Glaxo Group Limited, priority 2005, published 2009).

In this assay the test system is influx of neutrophils to the lung in LPS-challenged rats. Briefly: Rat LPS neutrophilia model. In kind it is in vivo. The conditions noted are these: LPS aerosol, lavage 4 hours later, in at least one of the range of conditions tested, significance p<0.05. On the procedure:
The effect of compounds on the influx of neutrophils to the lung in LPS-challenged rats is evaluated as follows. The test compound is suspended in one of the following solutions: 0.5% tween 80/PBS, 0.5% tween 80/saline, 10% EtOH/saline (with pH adjusted to 2.0, or 8.0 with HCl, or unadjusted), Saline (pH 2.0, 6.5 or 8.0, 0.5% Tragacanth, 1% DMSO/20% Encapsin/Saline, or acidified 5% Tragacanth. The suspension process may be aided by the use of a glass homogenizer. For intratracheal administration, the animals are anesthetized with inhaled isoflurane and placed in a supine position, the trachea is intubated with a steel gavage needle (1.5 inch, 22 gauge, small ball) or a Penn-Century Microsprayer Aerosolizer (model IA-LB) and 200 ul of dosing solution is delivered. The animals are visually monitored during the recovery process, which typically occurs within two minutes.
Rats treated with compound or vehicle (15 min-24 hours pretreatment) are exposed to an LPS aerosol (100 ug/ml) for 15 min. Four hours later the rats are euthanized with pentobarbital (100 mg/kg, i.p.) and the airways are lavaged with 5 washes of 5 ml of phosphate buffered saline. The harvested cells are stained (Diffquick) and counted to determine total and differential cell data. In a typical study, macrophages represent 40-70% of the total cells, and polymorphonuclear cells 30-60% of the total cells. Inhibition of neutrophil levels relative to no compound controls is calculated based on the differential counts.
The assay has varying conditions, such as concentration, pretreat time, form of the compound (crystalline, amorphous, salts, micronised), and a wet or dry application of the compound.
The data is obtained as % inhibition using a particular concentration and pretreat time.

Counter-ions that a name gives are not always drawn.

As for `CN(C)CCNc1nc(-c2cccc(C(=O)Nc3ccccc3)c2)c2c(n1)N(c1c(F)cccc1F)C(=O)NC2` [Example 91], the inhibition of neutrophilia entry is on record as “statistically significant inhibition of neutrophilia”. On to `CN(C)CCNc1nc(-c2cccc(C(=O)Nc3nccs3)c2)c2c(n1)N(c1c(F)cccc1F)C(=O)NC2` [Example 92, 3-(8-(2,6-difluorophenyl)-2-{[2-(dimethylamino)ethyl]amino}-7-oxo-5,6,7,8-tetrahydropyrimido[4,5-d]pyrimidin-4-yl)-N-1,3-thiazol-2-ylbenzamide], for which the inhibition of neutrophilia entry is reported as “statistically significant inhibition of neutrophilia”. The result for `CN(C)CCNc1nc(-c2cccc(C(=O)Nc3ccc(F)cc3)c2)c2c(n1)N(c1c(F)cccc1F)C(=O)NC2` [Example 93] reads “statistically nonsignificant inhibition of neutrophilia”.

With `Cc1c(F)cc(C(=O)Nc2ccccc2)cc1-c1nc(NCCN(C)C)nc2c1CNC(=O)N2c1c(F)cccc1F` [Example 112, 3-(8-(2,6-difluorophenyl)-2-{[2-(dimethylamino)ethyl]amino}-7-oxo-5,6,7,8-tetrahydropyrimido[4,5-d]pyrimidin-4-yl)-5-fluoro-4-methyl-N-phenylbenzamide], the inhibition of neutrophilia result is given as “statistically significant inhibition of neutrophilia”. Then `Cc1ccc(C(=O)Nc2nccs2)cc1-c1nc(NCCCN(C)C)nc2c1CNC(=O)N2c1c(F)cccc1F` [Example 119, 3-(8-(2,6-difluorophenyl)-2-{[3-(dimethylamino)propyl]amino}-7-oxo-5,6,7,8-tetrahydropyrimido[4,5-d]pyrimidin-4-yl)-4-methyl-N-1,3-thiazol-2-ylbenzamide], with “statistically significant inhibition of neutrophilia”. For `CCN(CC)CCCNc1nc(-c2cc(C(=O)Nc3nccs3)ccc2C)c2c(n1)N(c1c(F)cccc1F)C(=O)NC2` [Example 120, 3-[2-{[3-(diethylamino)propyl]amino}-8-(2,6-difluorophenyl)-7-oxo-5,6,7,8-tetrahydropyrimido[4,5-d]pyrimidin-4-yl]-4-methyl-N-1,3-thiazol-2-ylbenzamide], the inhibition of neutrophilia result is on record as “statistically significant inhibition of neutrophilia”. Consider `Cc1ccc(C(=O)Nc2nccs2)cc1-c1nc(N(C)CCCN(C)C)nc2c1CNC(=O)N2c1c(F)cccc1F` [Example 124, 3-{8-(2,6-difluorophenyl)-2-[[3-(dimethylamino)propyl](methyl)amino]-7-oxo-5,6,7,8-tetrahydropyrimido[4,5-d]pyrimidin-4-yl}-4-methyl-N-1,3-thiazol-2-ylbenzamide], for which the inhibition of neutrophilia result is recorded as “statistically nonsignificant inhibition of neutrophilia”. The result for `CSc1ccc(NC(=O)c2ccc(C)c(-c3nc(NCCN(C)C)nc4c3CNC(=O)N4c3c(F)cccc3F)c2)cc1` [Example 127, 3-(8-(2,6-difluorophenyl)-2-{[2-(dimethylamino)ethyl]amino}-7-oxo-5,6,7,8-tetrahydropyrimido[4,5-d]pyrimidin-4-yl)-4-methyl-N-[4-(methylthio)-phenyl]benzamide] reads “statistically significant inhibition of neutrophilia”; that for `Cc1ccc(C(=O)Nc2nccs2)cc1-c1nc(NC[C@H](C)O)nc2c1CNC(=O)N2c1c(F)cccc1F` [Example 134, 3-(8-(2,6-difluorophenyl)-2-{[(2S)-2-hydroxypropyl]amino}-7-oxo-5,6,7,8-tetrahydropyrimido[4,5-d]pyrimidin-4-yl)-4-methyl-N-1,3-thiazol-2-ylbenzamide], “statistically nonsignificant inhibition of neutrophilia”. The result for `Cc1ccc(C(=O)Nc2ccccc2)cc1-c1nc(NCCN(C)C)nc2c1CNC(=O)N2c1c(F)cccc1F` [Example 137, 3-(8-(2,6-difluorophenyl)-2-{[2-(dimethylamino)ethyl]amino}-7-oxo-5,6,7,8-tetrahydropyrimido[4,5-d]pyrimidin-4-yl)-4-methyl-N-phenylbenzamide] reads “statistically significant inhibition of neutrophilia”; that for `Cc1ccc(C(=O)Nc2ccc(F)c(F)c2)cc1-c1nc(NCCN(C)C)nc2c1CNC(=O)N2c1c(F)cccc1F` [Example 138, N-(3,4-difluorophenyl)-3-(8-(2,6-difluorophenyl)-2-{[2-(dimethylamino)-ethyl]amino}-7-oxo-5,6,7,8-tetrahydropyrimido[4,5-d]pyrimidin-4-yl)-4-methylbenzamide], “statistically significant inhibition of neutrophilia”; that for `COc1ccc(NC(=O)c2ccc(C)c(-c3nc(NCCN(C)C)nc4c3CNC(=O)N4c3c(F)cccc3F)c2)cn1` [Example 140, 3-(8-(2,6-difluorophenyl)-2-{[2-(dimethylamino)ethyl]amino}-7-oxo-5,6,7,8-tetrahydropyrimido[4,5-d]pyrimidin-4-yl)-4-methyl-N-[6-(methyloxy)-3-pyridinyl]benzamide], “statistically significant inhibition of neutrophilia”. As to `CCc1ccc(C(=O)Nc2nccs2)cc1-c1nc(NCCN(C)C)nc2c1CNC(=O)N2c1c(F)cccc1F` [Example 144, 3-(8-(2,6-difluorophenyl)-2-{[2-(dimethylamino)ethyl]amino}-7-oxo-5,6,7,8-tetrahydropyrimido[4,5-d]pyrimidin-4-yl)-4-ethyl-N-1,3-thiazol-2-ylbenzamide trifluoroacetate], the inhibition of neutrophilia result is “statistically significant inhibition of neutrophilia”. On to `Cc1ccc(C(=O)NC(C)C)cc1-c1nc(N2CCCN(C)CC2)nc2c1CNC(=O)N2c1c(F)cccc1F` [Example 179, 3-[8-(2,6-difluorophenyl)-2-(4-methylhexahydro-1H-1,4-diazepin-1-yl)-7-oxo-5,6,7,8-tetrahydropyrimido[4,5-d]pyrimidin-4-yl]-4-methyl-N-(1-methylethyl)benzamide trifluoroacetate], for which the inhibition of neutrophilia entry is recorded as “statistically nonsignificant inhibition of neutrophilia”. Then `Cc1ccc(C(=O)NC(C)C)cc1-c1nc(NC2CCN(Cc3ccccc3)CC2)nc2c1CNC(=O)N2c1c(F)cccc1F` [Example 200, 3-(8-(2,6-difluorophenyl)-7-oxo-2-{[1-(phenylmethyl)-4-piperidinyl]amino}-5,6,718-tetrahydropyrimido[4,5-d]pyrimidin-4-yl)-4-methyl-N-(1-methylethyl)benzamide], with “statistically significant inhibition of neutrophilia”.
